{
  "source": "PubChem BioAssay AID1963983",
  "about": "(Molecular Pharmacology Branch, DTP, NCI, 2024)",
  "test_system": "186277-243-T-J2-PDC multi-cell spheroid viability",
  "assay": "Anticancer human tumor 186277-243-T-J2-PDC patient-derived colon adenocarcinoma cell line growth inhibition [PI3K]",
  "conditions": "for viability, T/C: stronger effect = lower value; for pIC50: curve of first compound",
  "excerpt": "Combinatorial screen of targeted agents with the PI3K inhibitors inavolisib, alpelisib, duvelisib, and copanlisib in multi-cell type tumor spheroids\nA high-throughput screen of multi-cell type tumor spheroids was designed to identify active combinations of targeted small molecules and PI3K pathway inhibitors. Complex spheroids include a stromal component modeled by human endothelial cells (HUVEC) and fibroblasts modeled by human mesenchymal stem cells (MSCs). The concentration ranges selected for each drug and investigational agent were based upon clinically achievable concentrations if the clinical Cmax of the agent was known.\nCompounds. The drugs and investigational agents: inavolisib (NSC800729), alpelisib (NSC765974), duvelisib (NSC772469), copanlisib (NSC816437), ipatasertib (NSC767898), afuresertib (NSC778305), talazoparib (NSC767125), sapanisertib (NSC764658), selumetinib (NSC741078), tovorafenib (DAY101, NSC766906), vemurafenib (NSC761431), ravoxertinib (NSC781343), sotorasib (NSC818433), MRTX1133 (NSC 836407), abemaciclib (NSC 768073), palbociclib (NSC758247), venetoclax (NSC 766270), SY5609 (NSC837396), enzalutamide (NSC755605), and darolutamide (NSC825331), were obtained from the National Cancer Institute (NCI) Developmental Therapeutics Program Chemical Repository. The FDA-approved anticancer drug set is available from the NCI Developmental Therapeutics Program. […] The stock solutions were prepared in dimethyl sulfoxide (DMSO, Sigma-Aldrich, St. Louis, MO, cat. D2650) at 800-fold the tested concentration and stored at -70 degrees C prior to their use. All drugs and investigational agents were tested over a range starting from a high concentration at or near the clinical Cmax and decreasing in half-log increments. If the clinical Cmax for an agent had not been determined, the highest concentration tested was 10 microM.\nCell Culture. All cells were maintained in an incubator at 37 degrees C and 5% CO2 with 95% humidity. The PDC lines were cultured according to standard operating procedures established by the NCI PDMR (https://pdmr.cancer.gov/sops/default.htm). All PDCs were thawed and cultured in Matrigel-coated flasks prepared with a working solution of 1X Ham's F-12 nutrient mix, without supplementation (Invitrogen, Waltham, MA, cat. 11765054), 100 U/mL penicillin-streptomycin (Invitrogen, cat. 15140122), and 2.5% Matrigel (Corning Inc., Corning, NY, cat. 354248) for the first three passages. The 354836-022-R-J1-PDC, 475296-252-R-J1-PDC, and 997726-040-R-J2-PDC lines were cultured in 6A media, which includes advanced DMEM/F-12 (Thermo Fisher Scientific, cat. 12634028), 10 mM HEPES (Thermo Fisher Scientific, cat. 15630080), 1X GlutaMAX supplement (Thermo Fisher Scientific, cat. 35050061), 0.1 mg/mL primocin (InvivoGen, San Diego, CA, cat. ant-pm-2), 10% defined fetal bovine serum, heat inactivated (HyClone Laboratories Inc., Logan, UT, cat. SH30070.03HI), 50% L-WRN conditioned media (ATCC, cat. CRL-3276), 1.25 mM N-Acetyl-L-cysteine (Sigma-Aldrich, cat. A9165), 10 mM nicotinamide (Sigma-Aldrich, cat. N0636), 1X B-27 supplement (Thermo Fisher Scientific, cat. 17504044), 1X N-2 supplement (Thermo Fisher Scientific, cat. 17502048), and 10 microM Y-27632 dihydrochloride (Tocris Bioscience, Bristol, United Kingdom, cat. 1254). The 624824-186-R-J2-PDC line was cultured in 6C/Colon 1B media, which includes all 6A media components plus 50 ng/mL human EGF recombinant protein (Thermo Fisher Scientific, cat. PHG0311). […]",
  "note": "pIC50: −log10 of the molar value.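 Note: spheroids exposed to compounds for seven days before viability reading.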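 Throughout, for viability, T/C: 100% = DMSO vehicle control viability.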",
  "data": [
    {"smiles": "C#Cc1c(F)ccc2cc(O)cc(-c3ncc4c(N5CC6CCC(C5)N6)nc(OCC56CCCN5CC(F)C6)nc4c3F)c12", "note": "(stereo not given)", "values": [
      {"measurement": "viability, T/C", "setting": "compound 0.0316 µM", "value": "90.4% [middle of 4 runs]"},
      {"measurement": "viability, T/C", "setting": "compound 0.1 µM", "value": "40.8% [middle of 4 runs]"},
      {"measurement": "viability, T/C", "setting": "compound 0.316 µM", "value": "25.4% [middle of 4 runs]"},
      {"measurement": "viability, T/C", "setting": "compound 1 µM", "value": "15.6% [middle of 4 runs]"},
      {"measurement": "viability, T/C", "setting": "compound 3.16 µM", "value": "14.8% [middle of 4 runs]"},
      {"measurement": "viability, T/C", "setting": "compound 10 µM", "value": "11.7% [middle of 4 runs]"},
      {"measurement": "IC50", "setting": "curve of compound", "value": "80.8 nM [middle of 4 runs]"}
    ]},
    {"smiles": "Cc1nc(NC(=O)N2CCCC2C(N)=O)sc1-c1ccnc(C(C)(C)C(F)(F)F)c1", "note": "(stereo not given)", "values": [
      {"measurement": "viability, T/C", "setting": "compound 0.1 µM", "value": "104% [middle of 8 runs]"},
      {"measurement": "viability, T/C", "setting": "compound 0.316 µM", "value": "110% [middle of 8 runs]"},
      {"measurement": "viability, T/C", "setting": "compound 1 µM", "value": "102% [middle of 8 runs]"},
      {"measurement": "viability, T/C", "setting": "compound 3.16 µM", "value": "54.1% [middle of 8 runs]"},
      {"measurement": "viability, T/C", "setting": "compound 10 µM", "value": "16.6% [middle of 8 runs]"},
      {"measurement": "IC50", "setting": "compound alone, run of 05/08/2023", "value": "3.62 µM [middle of 8 runs]"}
    ]},
    {"smiles": "CNC(=O)c1ccc(N2C(=S)N(c3ccc(C#N)c(C(F)(F)F)c3)C(=O)C2(C)C)cc1F", "note": "+ CC(Nc1ccc2c(c1)OCCn1cc(N3C(=O)OCC3C(F)F)nc1-2)C(N)=O", "values": [
      {"measurement": "pIC50", "setting": "second compound 0.00316 µM", "value": "< 5.00"},
      {"measurement": "pIC50", "setting": "second compound 0.01 µM", "value": "< 5.00"},
      {"measurement": "pIC50", "setting": "second compound 0.0316 µM", "value": "< 5.00"},
      {"measurement": "pIC50", "setting": "second compound 0.1 µM", "value": "< 5.00"},
      {"measurement": "pIC50", "setting": "second compound 0.316 µM", "value": "< 5.00"},
      {"measurement": "pIC50", "setting": "second compound 1 µM", "value": 6.45},
      {"measurement": "viability, T/C", "setting": "second compound 0.00316 µM, first compound 0.0316 µM", "value": 109, "unit": "%"},
      {"measurement": "viability, T/C", "setting": "second compound 0.00316 µM, first compound 0.1 µM", "value": 95.8, "unit": "%"},
      {"measurement": "viability, T/C", "setting": "second compound 0.00316 µM, first compound 0.316 µM", "value": 90.8, "unit": "%"},
      {"measurement": "viability, T/C", "setting": "second compound 0.00316 µM, first compound 1 µM", "value": 98, "unit": "%"},
      {"measurement": "viability, T/C", "setting": "second compound 0.00316 µM, first compound 3.16 µM", "value": 109, "unit": "%"},
      {"measurement": "viability, T/C", "setting": "second compound 0.00316 µM, first compound 10 µM", "value": 92.2, "unit": "%"},
      {"measurement": "viability, T/C", "setting": "second compound 0.01 µM, first compound 0.0316 µM", "value": 98, "unit": "%"},
      {"measurement": "viability, T/C", "setting": "second compound 0.01 µM, first compound 0.1 µM", "value": 83.8, "unit": "%"},
      {"measurement": "viability, T/C", "setting": "second compound 0.01 µM, first compound 0.316 µM", "value": 99.3, "unit": "%"},
      {"measurement": "viability, T/C", "setting": "second compound 0.01 µM, first compound 1 µM", "value": 89.4, "unit": "%"},
      {"measurement": "viability, T/C", "setting": "second compound 0.01 µM, first compound 3.16 µM", "value": 93.7, "unit": "%"},
      {"measurement": "viability, T/C", "setting": "second compound 0.01 µM, first compound 10 µM", "value": 106, "unit": "%"},
      {"measurement": "viability, T/C", "setting": "second compound 0.0316 µM, first compound 0.0316 µM", "value": 110, "unit": "%"},
      {"measurement": "viability, T/C", "setting": "second compound 0.0316 µM, first compound 0.1 µM", "value": 111, "unit": "%"},
      {"measurement": "viability, T/C", "setting": "second compound 0.0316 µM, first compound 0.316 µM", "value": 94.1, "unit": "%"},
      {"measurement": "viability, T/C", "setting": "second compound 0.0316 µM, first compound 1 µM", "value": 113, "unit": "%"},
      {"measurement": "viability, T/C", "setting": "second compound 0.0316 µM, first compound 3.16 µM", "value": 113, "unit": "%"},
      {"measurement": "viability, T/C", "setting": "second compound 0.0316 µM, first compound 10 µM", "value": 99.2, "unit": "%"},
      {"measurement": "viability, T/C", "setting": "second compound 0.1 µM, first compound 0.0316 µM", "value": 105, "unit": "%"},
      {"measurement": "viability, T/C", "setting": "second compound 0.1 µM, first compound 0.1 µM", "value": 95.5, "unit": "%"},
      {"measurement": "viability, T/C", "setting": "second compound 0.1 µM, first compound 0.316 µM", "value": 100, "unit": "%"},
      {"measurement": "viability, T/C", "setting": "second compound 0.1 µM, first compound 1 µM", "value": 112, "unit": "%"},
      {"measurement": "viability, T/C", "setting": "second compound 0.1 µM, first compound 3.16 µM", "value": 90.2, "unit": "%"},
      {"measurement": "viability, T/C", "setting": "second compound 0.1 µM, first compound 10 µM", "value": 86.1, "unit": "%"},
      {"measurement": "viability, T/C", "setting": "second compound 0.316 µM, first compound 0.0316 µM", "value": 86.6, "unit": "%"},
      {"measurement": "viability, T/C", "setting": "second compound 0.316 µM, first compound 0.1 µM", "value": 80, "unit": "%"},
      {"measurement": "viability, T/C", "setting": "second compound 0.316 µM, first compound 0.316 µM", "value": 68.5, "unit": "%"},
      {"measurement": "viability, T/C", "setting": "second compound 0.316 µM, first compound 1 µM", "value": 79.4, "unit": "%"},
      {"measurement": "viability, T/C", "setting": "second compound 0.316 µM, first compound 3.16 µM", "value": 73.7, "unit": "%"},
      {"measurement": "viability, T/C", "setting": "second compound 0.316 µM, first compound 10 µM", "value": 63.4, "unit": "%"},
      {"measurement": "viability, T/C", "setting": "second compound 1 µM, first compound 0.0316 µM", "value": 58, "unit": "%"},
      {"measurement": "viability, T/C", "setting": "second compound 1 µM, first compound 0.1 µM", "value": 50.4, "unit": "%"},
      {"measurement": "viability, T/C", "setting": "second compound 1 µM, first compound 0.316 µM", "value": 45.1, "unit": "%"},
      {"measurement": "viability, T/C", "setting": "second compound 1 µM, first compound 1 µM", "value": 51.6, "unit": "%"},
      {"measurement": "viability, T/C", "setting": "second compound 1 µM, first compound 3.16 µM", "value": 49.6, "unit": "%"},
      {"measurement": "viability, T/C", "setting": "second compound 1 µM, first compound 10 µM", "value": 38.5, "unit": "%"}
    ]}
  ]
}
